The source of these data is patent US8741906B2 (priority 2011, dated 2014).

One assay deals with T1, human CB2 receptors (Homo sapiens, UniProt P34972).
T1 construct: expressed in transfected cells; host or cells: CHO cells
The experiment in a line: functional cAMP assay, human CB2. The assay is classed as cell-based. The method, then: (§1) CHO cells expressing human CB1 or CB2 receptors are seeded 17-24 hours prior to the experiment 50.000 cells per well in a black 96 well plate with flat clear bottom (Corning Costar #3904) in DMEM (Invitrogen No. 31331), 1×HT supplement, with 10% fetal calf serum and incubated at 5% CO2 and 37° C. in a humidified incubator. The growth medium was exchanged with Krebs Ringer Bicarbonate buffer with 1 mM IBMX and incubated at 30° C. for 30 min. Compounds were added to a final assay volume of 100 μl and incubated for 30 min at 30° C. Using the cAMP-Nano-TRF detection kit the assay (Roche Diagnostics) was stopped by the addition of 50 μl lysis reagent (Tris, NaCl, 1.5% Triton X100, 2.5% NP40, 10% NaN3) and 50 μl detection solutions (20 μM mAb Alexa700-cAMP 1:1, and 48 μM Ruthenium-2-AHA-cAMP) and shaken for 2 h at room temperature. The time-resolved energy transfer is measured by a TRF reader (Evotec Technologies GmbH), equipped with a ND:YAG laser as excitation source. The plate is measured twice with the excitation at 355 nm and at the emission with a delay of 100 ns and a gate of 100 ns, total exposure time 10 s at 730 (bandwidth 30 nm) or 645 nm (bandwidth 75 nm), respectively. The FRET signal is calculated as follows: FRET=T730-Alexa730-P(T645-B645) with P=Ru730-B730/Ru645-B645, where T730 is the test well measured at 730 nM, T645 is the test well measured at 645 nm, B730 and B645 are the buffer controls at 730 nm and 645 nm, respectively. cAMP content is determined from the function of a standard curve spanning from 10 μM to 0.13 nM cAMP.
(§2) EC50 values were determined using Activity Base analysis (ID Business Solution, Limited). The EC50 values for a wide range of cannabinoid agonists generated from this assay were in agreement with the values published in the scientific literature.
In general terms: cAMP levels reflect the balance of adenylyl cyclase and phosphodiesterase activity.

The next assay has as its target T2, human CB1 receptors (Homo sapiens, UniProt P21554).
T2 construct: expressed in transfected cells; host or cells: CHO cells
Nature of the assay: functional cAMP assay, human CB1. The assay is classed as cell-based. The procedure:
as §1, §2

The mark [1] stands for this setting: CHO cells expressing human CB2, cAMP, read-out: human CB2 EC50.
[2] abbreviates: CHO cells expressing human CB1, cAMP, read-out: human CB1 EC50.

Structures are written as SMILES. Read-outs that look alike come from different tables or passages of the source.

T2 sequence (P21554 whole entry): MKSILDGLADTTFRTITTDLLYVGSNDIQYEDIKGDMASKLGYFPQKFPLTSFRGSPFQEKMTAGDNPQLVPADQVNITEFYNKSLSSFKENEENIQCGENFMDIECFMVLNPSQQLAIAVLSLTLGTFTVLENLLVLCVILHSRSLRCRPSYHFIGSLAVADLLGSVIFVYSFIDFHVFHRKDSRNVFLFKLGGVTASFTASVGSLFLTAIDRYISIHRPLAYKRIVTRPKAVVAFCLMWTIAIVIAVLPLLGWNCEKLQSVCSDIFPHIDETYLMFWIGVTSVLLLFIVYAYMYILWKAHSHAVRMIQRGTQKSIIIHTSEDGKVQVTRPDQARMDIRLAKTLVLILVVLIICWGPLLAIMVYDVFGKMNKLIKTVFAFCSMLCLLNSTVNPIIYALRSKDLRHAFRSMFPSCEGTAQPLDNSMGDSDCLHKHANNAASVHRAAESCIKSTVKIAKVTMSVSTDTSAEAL
T1 sequence (P34972 whole entry): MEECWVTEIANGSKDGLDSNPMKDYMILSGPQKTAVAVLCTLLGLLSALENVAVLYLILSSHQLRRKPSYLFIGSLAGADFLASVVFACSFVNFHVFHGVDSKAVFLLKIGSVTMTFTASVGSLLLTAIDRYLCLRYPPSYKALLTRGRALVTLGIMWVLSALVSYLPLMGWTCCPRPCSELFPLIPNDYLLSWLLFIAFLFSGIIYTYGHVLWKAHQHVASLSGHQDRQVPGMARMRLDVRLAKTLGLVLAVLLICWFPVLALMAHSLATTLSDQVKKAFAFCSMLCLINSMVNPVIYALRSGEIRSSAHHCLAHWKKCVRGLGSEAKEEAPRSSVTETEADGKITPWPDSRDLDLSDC

Regarding `CC(C)(C)c1nc(N2CC[C@H](F)C2)c2nnn(Cc3ccccc3Cl)c2n1` [Example 36, 5-tert-Butyl-3-(2-chloro-benzyl)-7-((S)-3-fluoro-pyrrolidin-1-yl)-3H-[1,2,3]triazolo[4,5-d]pyrimidine], the EC50 stood at 0.6 nM on human CB2 receptors (setting [1]) and 432 nM at human CB1 receptors (setting [2]).
The matching figures for `CC(C)(C)c1nc(N2CCC[C@@H]2CO)c2nnn(Cc3ccccc3Cl)c2n1` [Example 37, {(R)-1-[5-tert-Butyl-3-(2-chloro-benzyl)-3H-[1,2,3]triazolo[4,5-d]pyrimidin-7-yl]-pyrrolidin-2-yl}-methanol]: 0.3 nM and 492 nM.
Taken in the same sequence, the figures for `CC(C)(C)c1nc(N2CCC[C@H]2CO)c2nnn(Cc3ccccc3Cl)c2n1` [Example 38, {(S)-1-[5-tert-Butyl-3-(2-chloro-benzyl)-3H-[1,2,3]triazolo[4,5-d]pyrimidin-7-yl]-pyrrolidin-2-yl}-methanol] were 18.2 nM and 361 nM.
Taken in the same sequence, the figures for `CC(C)(C)c1nc(N2CCCCO2)c2nnn(Cc3ccccc3Cl)c2n1` [Example 39, 5-tert-Butyl-3-(2-chloro-benzyl)-7-[1,2]oxazinan-2-yl-3H-[1,2,3]triazolo[4,5-d]pyrimidine] were 7.9 nM and 1330 nM.
With `CC(C)(C)c1nc(N2CCCO2)c2nnn(Cc3ccccc3Cl)c2n1` [Example 40, 5-tert-Butyl-3-(2-chloro-benzyl)-7-isoxazolidin-2-yl-3H-[1,2,3]triazolo[4,5-d]pyrimidine], the EC50 at human CB2 receptors (setting [1]) was 11.6 nM; at human CB1 receptors (setting [2]), greater than 10000 nM.
Turning to `CC(C)(C)c1nc(N2CC2)c2nnn(Cc3ccccc3Cl)c2n1` [Example 41, 7-Aziridin-1-yl-5-tert-butyl-3-(2-chloro-benzyl)-3H-[1,2,3]triazolo[4,5-d]pyrimidine], the EC50 on human CB2 receptors is 36.5 nM; at human CB1 receptors, 1220 nM.
Take `CC(C)(C)c1nc(N2CC[C@@H](F)C2)c2nnn(Cc3ccccc3Cl)c2n1` [Example 42, 5-tert-Butyl-3-(2-chloro-benzyl)-7-((R)-3-fluoro-pyrrolidin-1-yl)-3H-[1,2,3]triazolo[4,5-d]pyrimidine]: the figures for the EC50 on human CB2 receptors (setting [1]) and on human CB1 receptors (setting [2]) were 0.3 nM and 991 nM, respectively.
Taken in the same sequence, the figures for `CC(C)(C)c1nc(N2CC(F)(F)C(F)(F)C2)c2nnn(Cc3ccccc3Cl)c2n1` [Example 43, 5-tert-Butyl-3-(2-chloro-benzyl)-7-(3,3,4,4-tetrafluoro-pyrrolidin-1-yl)-3H-[1,2,3]triazolo[4,5-d]pyrimidine] were 1.2 nM and 626 nM.
Taken in the same sequence, the figures for `COC[C@H]1CCCN1c1nc(C(C)(C)C)nc2c1nnn2Cc1ccccc1Cl` [Example 44, 5-tert-Butyl-3-(2-chloro-benzyl)-7-((R)-2-methoxymethyl-pyrrolidin-1-yl)-3H-[1,2,3]triazolo[4,5-d]pyrimidine] were 1 nM and greater than 10000 nM.
The matching figures for `COC[C@@H]1CCCN1c1nc(C(C)(C)C)nc2c1nnn2Cc1ccccc1Cl` [Example 45, 5-tert-Butyl-3-(2-chloro-benzyl)-7-((S)-2-methoxymethyl-pyrrolidin-1-yl)-3H-[1,2,3]triazolo[4,5-d]pyrimidine]: 52.2 nM and greater than 10000 nM.
On to `CC(C)(C)c1nc(N2C[C@@H](F)C[C@H]2C#N)c2nnn(Cc3ccccc3Cl)c2n1` [Example 46, (2S,4S)-1-[5-tert-Butyl-3-(2-chloro-benzyl)-3H-[1,2,3]triazolo[4,5-d]pyrimidin-7-yl]-4-fluoro-pyrrolidine-2-carbonitrile], for which the EC50 on human CB2 receptors (setting [1]) was found to be 4.4 nM; at human CB1 receptors (setting [2]), 2310 nM.
For `CC(C)(C)c1nc(N2CCCS2(=O)=O)c2nnn(Cc3ccccc3Cl)c2n1` [Example 47, 5-tert-Butyl-3-(2-chloro-benzyl)-7-(1,1-dioxo-1λ6-isothiazolidin-2-yl)-3H-[1,2,3]triazolo[4,5-d]pyrimidine], the EC50 at human CB2 receptors (setting [1]) is 20.2 nM; on human CB1 receptors (setting [2]) it was greater than 10000 nM.
`CC(C)(C)c1nc(N2CCOCC2CO)c2nnn(Cc3ccccc3Cl)c2n1` (stereo not drawn) [Example 48, {4-[5-tert-Butyl-3-(2-chloro-benzyl)-3H-[1,2,3]triazolo[4,5-d]pyrimidin-7-yl]-morpholin-3-yl}-methanol]: the figures for the EC50 on human CB2 receptors (setting [1]) and at human CB1 receptors (setting [2]) were 8.3 nM and greater than 10000 nM, respectively.
Taken in the same sequence, the figures for `CC(C)(C)c1nc(N2CCC[C@@H]2C#N)c2nnn(Cc3ccccc3Cl)c2n1` [Example 49, (R)-1-[5-tert-Butyl-3-(2-chloro-benzyl)-3H-[1,2,3]triazolo[4,5-d]pyrimidin-7-yl]-pyrrolidine-2-carbonitrile] were 1.1 nM and 155 nM.
Turning to `CC(C)(C)c1nc(N2CCC[C@H]2C#N)c2nnn(Cc3ccccc3Cl)c2n1` [Example 50, (S)-1-[5-tert-Butyl-3-(2-chloro-benzyl)-3H-[1,2,3]triazolo[4,5-d]pyrimidin-7-yl]-pyrrolidine-2-carbonitrile], the EC50 is 1 nM at human CB2 receptors (setting [1]) and 139 nM at human CB1 receptors (setting [2]).
For `CC(C)(C)c1nc(N2CC[C@H](O)[C@@H]2CO)c2nnn(Cc3ccccc3Cl)c2n1` [Example 51, (2S,3S)-1-[5-tert-Butyl-3-(2-chloro-benzyl)-3H-[1,2,3]triazolo[4,5-d]pyrimidin-7-yl]-2-hydroxymethyl-pyrrolidin-3-ol], the EC50 at human CB2 receptors (setting [1]) is 2.4 nM; at human CB1 receptors (setting [2]), greater than 10000 nM.
Taken in the same sequence, the figures for `CC(C)(C)c1nc(N2CC[C@@H](O)[C@@H]2CO)c2nnn(Cc3ccccc3Cl)c2n1` [Example 52, (2S,3R)-1-[5-tert-Butyl-3-(2-chloro-benzyl)-3H-[1,2,3]triazolo[4,5-d]pyrimidin-7-yl]-2-hydroxymethyl-pyrrolidin-3-ol] were 20.8 nM and greater than 10000 nM.
Turning to `CC(C)(C)c1nc(N2CCCC23COC3)c2nnn(Cc3ccccc3Cl)c2n1` [Example 53, 5-tert-Butyl-3-(2-chloro-benzyl)-7-(2-oxa-5-aza-spiro[3.4]oct-5-yl)-3H-[1,2,3]triazolo[4,5-d]pyrimidine], the EC50 on human CB2 receptors (setting [1]) was 15 nM; at human CB1 receptors (setting [2]), greater than 10000 nM.
The matching figures for `CC1(O)CCN(c2nc(C(C)(C)C)nc3c2nnn3Cc2ccccc2Cl)C1` (stereo not drawn) [Example 54, 1-[5-tert-Butyl-3-(2-chloro-benzyl)-3H-[1,2,3]triazolo[4,5-d]pyrimidin-7-yl]-3-methyl-pyrrolidin-3-ol]: 2.8 nM and greater than 10000 nM.
The matching figures for `CC(C)(C)c1nc(N2C[C@@H](O)[C@@H](O)C2)c2nnn(Cc3ccccc3Cl)c2n1` [Example 56, (3S,4R)-1-[5-tert-Butyl-3-(2-chloro-benzyl)-3H-[1,2,3]triazolo[4,5-d]pyrimidin-7-yl]-pyrrolidine-3,4-diol]: 16.5 nM and greater than 10000 nM.
Taken in the same sequence, the figures for `COc1ccc(Cn2nnc3c(N4CCOCC4)nc(C(C)(C)C)nc32)cc1` [Example 57, 5-tert-Butyl-3-(4-methoxy-benzyl)-7-morpholin-4-yl-3H-[1,2,3]triazolo[4,5-d]pyrimidine] were 12.3 nM and greater than 10000 nM.
`CC(C)(C)c1nc(N2CCOCC2)c2nn[nH]c2n1` [Example 58]: the EC50 at human CB2 receptors (setting [1]) is 337 nM; on human CB1 receptors (setting [2]) it was greater than 10000 nM.
Taken in the same sequence, the figures for `CC(C)(C)c1nc(N2CCOCC2)c2nnn(Cc3ccc(F)cc3Cl)c2n1` [Example 59, 5-tert-Butyl-3-(2-chloro-4-fluoro-benzyl)-7-morpholin-4-yl-3H-[1,2,3]triazolo[4,5-d]pyrimidine] were 2.3 nM and greater than 10000 nM.
`COc1ccc(Cn2nnc3c(N4CCC(F)(F)C4)nc(C(C)(C)C)nc32)cc1` [Example 60, 5-tert-Butyl-7-(3,3-difluoro-pyrrolidin-1-yl)-3-(4-methoxy-benzyl)-3H-[1,2,3]triazolo[4,5-d]pyrimidine]: the values for the concentration giving a half-maximal response (EC50) on human CB2 receptors (setting [1]) and on human CB1 receptors (setting [2]) were 2.5 nM and greater than 10000 nM, respectively.
The matching figures for `CCn1nnc2c(N3CCC(F)(F)C3)nc(C(C)(C)C)nc21` [Example 61, 5-tert-butyl-7-(3,3-difluoropyrrolidin-1-yl)-3-ethyl-3H-[1,2,3]triazolo[4,5-d]pyrimidine]: 13.2 nM and greater than 10000 nM.
As to `COCCn1nnc2c(N3CCC(F)(F)C3)nc(C(C)(C)C)nc21` [Example 62, 5-tert-Butyl-7-(3,3-difluoro-pyrrolidin-1-yl)-3-(2-methoxy-ethyl)-3H-[1,2,3]triazolo[4,5-d]pyrimidine], the half-maximal effective concentration (EC50) at human CB2 receptors (setting [1]) is 3.3 nM; at human CB1 receptors (setting [2]) it was greater than 10000 nM.
As to `CC(C)(C)c1nc(N2CCC(F)(F)C2)c2nnn(CCO)c2n1` [Example 63, 2-[5-tert-Butyl-7-(3,3-difluoro-pyrrolidin-1-yl)-[1,2,3]triazolo[4,5-d]pyrimidin-3-yl]-ethanol], the EC50 on human CB2 receptors (setting [1]) was 18.2 nM; at human CB1 receptors (setting [2]), greater than 10000 nM.

A word on the EC50: it is the concentration at which the effect is half-maximal.
